Experimental data reported in ChEMBL document CHEMBL1201862, “PubChem BioAssay data set” (2004).
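Exposure lasted 48 hours, with cells grown in 96-well plates and compounds tested at five concentrations. Here, GI50 denotes the concentration required for 50% inhibition of growth.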 Active and inactive are the calls of the source. Rule as the data show it: active = GI50 up to about 1.1 µM and inactive = higher.

Key:
Test in all cases: NCI-60 cell line screen, 48 h
[1] = tested on: LXFL 529
[2] = tested on: LOX IMVI
[3] = tested on: DMS-114
[4] = tested on: A498
[5] = tested on: KM-20L2
[6] = tested on: NCI-H460
[7] = tested on: SK-MEL-5
[8] = tested on: NCI-H226
[9] = tested on: SF-268
[10] = tested on: SF-539
[11] = tested on: NCI-H23
[12] = tested on: SK-OV-3
[13] = tested on: SF-295
[14] = tested on: M19-MEL
[15] = tested on: HL-60
[16] = tested on: SK-MEL-28
[17] = tested on: CAKI-1

Measured: GI50

Nc1nc(SCCC/C=C/I)nc2c1ncn2C1OC(COP(=O)(O)O)C(O)C1O (configuration not stated)
inactive: [1] > 100 µM | [2] > 100 µM | [3] > 100 µM | [4] > 100 µM | [5] > 100 µM | [6] > 100 µM | [7] > 100 µM | [8] > 100 µM | [9] > 100 µM | [10] > 100 µM | [11] > 100 µM | [12] > 100 µM | [13] > 100 µM | [14] > 100 µM | [15] > 100 µM | [16] > 100 µM

Cn1c(=O)c2nc(NCCO)cnc2n(C)c1=O
inactive: [1] 36.5 µM | [3] 64.1 µM | [4] > 100 µM | [5] > 100 µM | [6] 59.7 µM | [7] > 100 µM | [9] > 100 µM | [10] 31.8 µM | [17] 95.5 µM | [11] > 100 µM | [12] > 100 µM | [13] 45.3 µM | [14] 56.5 µM | [15] 27.2 µM | [16] > 100 µM

CCOC(=O)C(=O)CC(=O)C(Br)C(Br)c1ccc(Cl)cc1 (configuration not stated)
inactive: [1] 16.3 µM | [2] 29.2 µM | [3] 43 µM | [5] > 100 µM | [6] > 100 µM | [7] 57.4 µM | [9] 34.1 µM | [17] 40.7 µM | [11] 30.5 µM | [12] > 100 µM | [13] > 100 µM | [14] 23.2 µM | [15] 17.2 µM | [16] 29.7 µM

CC1=C(C(=O)CC(=O)C(=O)Nc2ccc(Cl)cc2C)Sc2ccccc2N1
inactive: [1] > 100 µM | [2] > 100 µM | [3] > 92.7 µM | [4] > 100 µM | [5] > 100 µM | [6] > 100 µM | [7] > 100 µM | [9] > 100 µM | [10] > 100 µM | [17] > 100 µM | [11] > 100 µM | [12] > 100 µM | [13] > 100 µM | [14] > 100 µM | [15] > 100 µM | [16] > 100 µM

O=C1OCC/C1=N/O
inactive: [1] > 100 µM | [3] > 100 µM | [4] > 100 µM | [5] > 100 µM | [6] > 100 µM | [7] > 100 µM | [8] > 100 µM | [9] > 100 µM | [10] > 100 µM | [11] > 100 µM | [12] > 100 µM | [13] > 100 µM | [14] > 100 µM | [15] > 100 µM | [16] > 100 µM

COc1ccc(/C=C(\NC(=O)c2ccccc2)c2nc3ccccc3[nH]2)cc1OC
inactive: [1] 76 µM | [2] > 100 µM | [3] > 100 µM | [4] > 100 µM | [5] > 100 µM | [6] > 100 µM | [7] > 100 µM | [8] > 100 µM | [9] > 100 µM | [10] > 100 µM | [17] > 100 µM | [11] > 100 µM | [12] > 100 µM | [13] > 100 µM | [14] > 100 µM | [15] > 100 µM | [16] > 100 µM

CCOC(=O)/C(=C\c1ccc(N(CCC#N)CCC#N)cc1C)NC(=O)/C=C/c1ccccc1
inactive: [1] > 100 µM | [2] > 100 µM | [3] > 100 µM | [4] > 100 µM | [5] > 100 µM | [6] > 100 µM | [7] > 100 µM | [8] 96.2 µM | [9] > 100 µM | [10] > 100 µM | [17] > 100 µM | [11] > 100 µM | [12] > 100 µM | [13] > 100 µM | [14] > 100 µM | [15] > 100 µM | [16] > 100 µM

O=C1OC2C(O)COC2(O)C1(O)Cc1c[nH]c2ccccc12 (configuration not stated)
inactive: [1] > 100 µM | [2] > 100 µM | [3] > 100 µM | [4] > 100 µM | [5] > 100 µM | [6] > 100 µM | [7] > 100 µM | [8] > 100 µM | [9] > 100 µM | [10] > 100 µM | [17] > 100 µM | [11] > 100 µM | [12] > 100 µM | [13] > 100 µM | [14] > 100 µM | [15] > 100 µM

Cn1ncc2c(Nc3ccc(Cl)cc3)c3ccccc3nc21
inactive: [1] 18.6 µM | [2] 15.1 µM | [3] 13.4 µM | [4] 14.8 µM | [6] 18.7 µM | [7] 13.6 µM | [8] 17.3 µM | [9] 20.3 µM | [10] 15.6 µM | [17] 21.8 µM | [11] > 10 µM | [12] 20.5 µM | [13] 17.7 µM | [14] 19.3 µM | [15] 23.4 µM | [16] 15.3 µM

Cc1cccc(C(C)C)c1NC(=O)C(=O)C(C(=O)c1ccccc1F)C1OC(=O)c2ccccc21 (configuration not stated)
inactive: [1] 11.9 µM | [2] 13.4 µM | [3] 10.2 µM | [4] 23.7 µM | [5] 29.2 µM | [6] 24.6 µM | [7] 14.1 µM | [8] 3.25 µM | [9] 9.64 µM | [10] 8.28 µM | [17] 31.5 µM | [11] 15 µM | [12] 18.9 µM | [14] 11.5 µM | [16] 14.4 µM

COC(=O)/C(C#N)=C1\NC(=O)c2ccccc21
inactive: [1] > 100 µM | [2] > 100 µM | [3] > 100 µM | [4] > 100 µM | [5] > 100 µM | [6] > 100 µM | [7] > 100 µM | [8] > 100 µM | [9] > 100 µM | [10] > 100 µM | [11] > 100 µM | [12] > 100 µM | [13] > 100 µM | [14] > 100 µM | [15] > 100 µM | [16] > 100 µM

CCOC(=O)COc1ccc(OC)c2c1C(=O)CCC2
inactive: [1] > 100 µM | [2] > 100 µM | [3] > 100 µM | [4] > 100 µM | [5] > 100 µM | [6] > 100 µM | [7] > 100 µM | [10] > 100 µM | [11] > 100 µM | [12] > 100 µM | [13] > 100 µM | [14] > 100 µM | [15] > 100 µM | [16] > 100 µM

COc1ccc2c(c1)[n+]([O-])c(C(=O)C/C(=N/NC(=O)c1ccccc1O)C(=O)Nc1ccc(Cl)c(C(F)(F)F)c1)c(C)[n+]2[O-]
inactive: [1] 51.4 µM | [2] 79.8 µM | [3] 71.8 µM | [4] 53.8 µM | [5] > 100 µM | [6] 46.5 µM | [7] 45.8 µM | [8] > 100 µM | [9] 54.8 µM | [10] > 100 µM | [11] 47.5 µM | [12] > 100 µM | [13] 72.3 µM | [14] 52.2 µM | [16] > 100 µM

CCOC(=O)CC(NC(=O)c1nc[nH]c1/N=N/N(C)C)C(=O)OCC (configuration not stated)
inactive: [1] > 100 µM | [2] > 100 µM | [3] > 100 µM | [4] > 100 µM | [6] > 100 µM | [7] > 100 µM | [8] > 100 µM | [9] > 100 µM | [10] > 100 µM | [17] > 100 µM | [11] > 100 µM | [12] > 100 µM | [13] > 100 µM | [14] > 100 µM | [15] > 100 µM | [16] > 100 µM

Cc1ccc(-c2nnc(SCC(=O)O)[nH]2)cc1
inactive: [1] > 100 µM | [3] > 100 µM | [4] > 100 µM | [5] > 100 µM | [6] > 100 µM | [7] > 100 µM | [8] > 100 µM | [9] > 100 µM | [10] > 100 µM | [17] > 100 µM | [11] > 100 µM | [12] > 100 µM | [13] > 100 µM | [14] > 100 µM | [15] > 100 µM | [16] > 100 µM

Clc1cccc(Cl)c1C1SCc2nc3ccccc3n21 (configuration not stated)
inactive: [1] > 100 µM | [2] > 100 µM | [3] 25.2 µM | [4] > 100 µM | [5] 43.2 µM | [6] 48.6 µM | [7] 9.04 µM | [8] > 100 µM | [9] > 100 µM | [10] > 100 µM | [17] > 100 µM | [11] > 100 µM | [12] > 100 µM | [13] > 100 µM | [14] > 100 µM | [15] 3.97 µM

Cn1cnc([N+](=O)[O-])c1Sc1nc2ccccc2[nH]1
inactive: [1] 6.67 µM | [2] 22.7 µM | [3] 8.26 µM | [4] 21.2 µM | [5] 16.4 µM | [6] 22.4 µM | [7] 13.1 µM | [8] 28.7 µM | [9] 14.3 µM | [10] 14.2 µM | [17] 3.68 µM | [11] 19.1 µM | [12] 21.7 µM | [13] > 100 µM | [14] 14.9 µM | [15] 9.29 µM | [16] 13.1 µM
